Data from US20260365670A1, “EGFR INHIBITORS AND USES THEREOF” (DIZAL (JIANGSU) PHARMACEUTICAL CO., LTD., priority 2022, published 2026).
Like-named read-outs stand apart in the source and are kept apart here.

Tests used:
EGFR L858R/T790M = molecular target: T1, EGFR L858R/T790M (Homo sapiens, UniProt P00533, L858R/T790M); assay: Inhibition of EGFR L858R/T790M biochemical enzymatic activity (HTRF); details: EGFR L858R-T790M, 1 mM ATP, 1 h, room temperature, read-out: IC50 (nM) @L858R-T790M
T1 construct: purchased Carna Bio
Method in brief: (§1)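 Enzyme preincubated with compound, then ATP (1 mM) and TK substrate-biotin (1 μM) added; 1 h RT; stopped with EDTA-containing detection mix; HTRF read (ex 320, em 615/665 nm); IC50 by 4-parameter logistic fit.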

EGFR Exon19Del/T790M = molecular target: T2, EGFR Exon19Del/T790M (Homo sapiens, UniProt P00533, DEL746-750/T790M); assay: Inhibition of EGFR Exon19Del/T790M biochemical enzymatic activity (HTRF); details: EGFR Del19-T790M, 1 mM ATP, 1 h, room temperature, read-out: IC50 (nM) @Del19-T790M
T2 construct: purchased Carna Bio
Method in brief: as §1

EGFR (C797S L858R) = molecular target: T3, EGFR (C797S L858R) (Homo sapiens, UniProt P00533, C797S/L858R); assay: Inhibition of EGFR (C797S L858R) biochemical enzymatic activity (HTRF); details: EGFR L858-C797S, 1 mM ATP, 1 h, room temperature, read-out: IC50 (nM) @L858-C797S
T3 construct: purchased signalchem
Method in brief: as §1

EGFR wild type = molecular target: T4, EGFR wild type (Homo sapiens, UniProt P00533); assay: Inhibition of EGFR wild type biochemical enzymatic activity (HTRF); details: EGFR WT, 1 mM ATP, 1 h, room temperature, read-out: IC50 (nM) @WT
T4 construct: purchased Carna Bio
Method in brief: as §1

[1] = system: Ba/F3 cells expressing EGFR mutations; assay: Cell proliferation assay, Ba/F3 cells expressing EGFR mutations (CellTiter-Glo, 72 hours); assay type: cell-based; details: CellTiter-Glo
Method in brief: (§2)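 In RPMI1640 medium (PC-9 with 10% FBS), each cell line was seeded at its own density: Ba/F3 5000 and PC-9 500 per well. A compound series was added the next day, with a time-zero viability plate read in parallel. Percent proliferation was subtracted for G0 and referenced to DMSO, and GI50 was derived by curve fitting.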

EGFR (d746-750 C797S) = molecular target: T5, EGFR (d746-750 C797S) (Homo sapiens, UniProt P00533, C797S/DEL746-750); assay: Inhibition of EGFR (d746-750 C797S) biochemical enzymatic activity (HTRF); details: EGFR Del19-C797S, 1 mM ATP, 1 h, room temperature, read-out: IC50 (nM) @Del19-C797S
T5 construct: purchased signalchem
Method in brief: as §1

[2] = molecular target: T6, EGFR[T790M/C797S/d746-750] (Homo sapiens, UniProt P00533, C797S/DEL746-750/T790M); assay: Inhibition of EGFR[T790M/C797S/d746-750] biochemical enzymatic activity (HTRF); details: EGFR T790M-C797S-Del19, 1 mM ATP, 1 h, room temperature, read-out: IC50 (nM) @T790M - C797S - Del19
T6 construct: purchased Carna Bio
Method in brief: as §1

EGFR[T790M/C797S/L858R] = molecular target: T7, EGFR[T790M/C797S/L858R] (Homo sapiens, UniProt P00533, C797S/L858R/T790M); assay: Inhibition of EGFR[T790M/C797S/L858R] biochemical enzymatic activity (HTRF); details: EGFR T790M-C797S-L858R, 1 mM ATP, 1 h, room temperature, read-out: IC50 (nM) @T790M- C797S - L858R
T7 construct: purchased Carna Bio
Method in brief: as §1

PC-9 = assay: Cell proliferation assay, PC-9 cells (CellTiter-Glo, 72 hours); assay type: cell-based; details: PC9 cells, CellTiter-Glo, read-out: PC9 GI50
Method in brief: as §2

EGFR Exon19Del = molecular target: T8, EGFR Exon19Del (Homo sapiens, UniProt P00533, DEL746-750); assay: Inhibition of EGFR Exon19Del biochemical enzymatic activity (HTRF); details: EGFR Del19, 1 mM ATP, 1 h, room temperature, read-out: IC50 @Del19
T8 construct: purchased Carna Bio
Method in brief: as §1

A-431 = assay: Cell proliferation GI50, A-431 cells (Table 6); assay type: cell-based
EGFR L858R = molecular target: T9, EGFR L858R (Homo sapiens, UniProt P00533, L858R); assay: Inhibition of EGFR L858R biochemical enzymatic activity (HTRF); details: 1 mM ATP, 1 h, room temperature, read-out: IC50 (nM) @L858R
T9 construct: purchased Carna Bio
Method in brief: as §1

[3] = BaF3 cells, EGFR DEL19-C797S, read-out: DEL19-C797S/BaF3 GI50
[4] = BaF3 cells, EGFR DEL19-T790-C797S, read-out: DEL19-T790-C797S/BaF3 GI50
[5] = BaF3 cells, EGFR L858R, read-out: L858R/BaF3 GI50
[6] = BaF3 cells, EGFR L858R-C797S, read-out: L858R-C797S/BaF3 GI50
[7] = BaF3 cells, EGFR L858R-T790-C797S, read-out: L858R-T790-C797S/BaF3 GI50
[8] = BaF3 cells, EGFR L858R-T790M, read-out: L858R-T790M/BaF3 GI50
[9] = EGFR DEL19-T790M, read-out: DEL19-T790M GI50
[10] = Mus musculus, BaF3, 72 h, BaF3 cells, EGFR DEL19-C797S, read-out: DEL19-C797S/BaF3 GI50
[11] = Mus musculus, BaF3, 72 h, BaF3 cells, EGFR DEL19-T790-C797S, read-out: DEL19-T790-C797S/BaF3 GI50
[12] = Mus musculus, BaF3, 72 h, BaF3 cells, EGFR L858R, read-out: L858R/BaF3 GI50
[13] = Mus musculus, BaF3, 72 h, BaF3 cells, EGFR L858R-C797S, read-out: L858R-C797S/BaF3 GI50
[14] = Mus musculus, BaF3, 72 h, BaF3 cells, EGFR L858R-T790-C797S, read-out: L858R-T790-C797S/BaF3 GI50
[15] = Mus musculus, BaF3, 72 h, BaF3 cells, EGFR L858R-T790M, read-out: L858R-T790M/BaF3 GI50
[16] = Mus musculus, BaF3, 72 h, EGFR DEL19-T790M, read-out: DEL19-T790M GI50
[17] = Homo sapiens, A-431, A-431 cells

T6 sequence (P00533 with tags, fused parts or gaps DEL746-750/T790M/C797S limits assumed): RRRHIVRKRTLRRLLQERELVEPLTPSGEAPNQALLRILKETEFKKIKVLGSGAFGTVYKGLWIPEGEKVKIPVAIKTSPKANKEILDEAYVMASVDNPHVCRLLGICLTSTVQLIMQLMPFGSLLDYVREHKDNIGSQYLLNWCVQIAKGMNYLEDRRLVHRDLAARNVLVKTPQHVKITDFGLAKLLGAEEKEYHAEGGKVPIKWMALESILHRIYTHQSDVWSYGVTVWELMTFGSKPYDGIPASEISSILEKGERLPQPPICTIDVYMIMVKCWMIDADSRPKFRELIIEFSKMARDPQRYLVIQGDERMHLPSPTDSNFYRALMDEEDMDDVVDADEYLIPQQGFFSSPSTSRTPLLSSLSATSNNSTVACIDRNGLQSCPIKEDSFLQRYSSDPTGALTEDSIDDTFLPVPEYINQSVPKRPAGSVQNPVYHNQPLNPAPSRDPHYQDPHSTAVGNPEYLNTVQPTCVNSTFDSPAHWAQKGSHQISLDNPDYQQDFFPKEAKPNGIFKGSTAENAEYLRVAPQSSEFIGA
T1 sequence (P00533 25-1210 T790M/L858R): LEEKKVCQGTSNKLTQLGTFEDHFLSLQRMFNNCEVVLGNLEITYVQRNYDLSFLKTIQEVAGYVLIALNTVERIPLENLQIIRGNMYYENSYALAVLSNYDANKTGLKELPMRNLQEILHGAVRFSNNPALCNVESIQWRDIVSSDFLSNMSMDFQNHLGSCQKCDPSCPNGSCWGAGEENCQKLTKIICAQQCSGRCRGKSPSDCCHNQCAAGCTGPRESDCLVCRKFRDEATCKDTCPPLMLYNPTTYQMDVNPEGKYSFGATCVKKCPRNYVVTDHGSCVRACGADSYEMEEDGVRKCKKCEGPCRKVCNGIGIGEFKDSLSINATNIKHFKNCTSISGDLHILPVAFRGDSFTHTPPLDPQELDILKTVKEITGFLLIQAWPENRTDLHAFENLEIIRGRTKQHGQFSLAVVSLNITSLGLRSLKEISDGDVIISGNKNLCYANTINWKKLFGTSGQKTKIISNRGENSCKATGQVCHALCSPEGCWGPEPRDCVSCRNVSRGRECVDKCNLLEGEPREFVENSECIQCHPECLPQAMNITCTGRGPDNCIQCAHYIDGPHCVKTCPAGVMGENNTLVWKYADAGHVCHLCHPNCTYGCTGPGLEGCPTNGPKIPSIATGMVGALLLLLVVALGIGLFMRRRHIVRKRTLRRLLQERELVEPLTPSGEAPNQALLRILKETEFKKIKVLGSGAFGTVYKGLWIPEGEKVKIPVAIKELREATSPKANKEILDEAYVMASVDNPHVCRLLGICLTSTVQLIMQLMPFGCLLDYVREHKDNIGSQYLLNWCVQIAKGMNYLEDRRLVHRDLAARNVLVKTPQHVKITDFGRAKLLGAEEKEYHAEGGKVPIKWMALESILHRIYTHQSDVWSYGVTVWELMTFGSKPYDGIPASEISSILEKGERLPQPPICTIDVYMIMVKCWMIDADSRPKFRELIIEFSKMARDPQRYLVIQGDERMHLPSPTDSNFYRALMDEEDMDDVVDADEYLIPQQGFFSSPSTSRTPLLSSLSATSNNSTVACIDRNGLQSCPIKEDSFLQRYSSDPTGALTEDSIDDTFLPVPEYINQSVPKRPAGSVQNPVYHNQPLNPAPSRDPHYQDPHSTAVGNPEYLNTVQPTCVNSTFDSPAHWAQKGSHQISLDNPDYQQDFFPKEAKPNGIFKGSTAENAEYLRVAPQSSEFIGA
T2 sequence (P00533 with tags, fused parts or gaps DEL746-750/T790M limits assumed): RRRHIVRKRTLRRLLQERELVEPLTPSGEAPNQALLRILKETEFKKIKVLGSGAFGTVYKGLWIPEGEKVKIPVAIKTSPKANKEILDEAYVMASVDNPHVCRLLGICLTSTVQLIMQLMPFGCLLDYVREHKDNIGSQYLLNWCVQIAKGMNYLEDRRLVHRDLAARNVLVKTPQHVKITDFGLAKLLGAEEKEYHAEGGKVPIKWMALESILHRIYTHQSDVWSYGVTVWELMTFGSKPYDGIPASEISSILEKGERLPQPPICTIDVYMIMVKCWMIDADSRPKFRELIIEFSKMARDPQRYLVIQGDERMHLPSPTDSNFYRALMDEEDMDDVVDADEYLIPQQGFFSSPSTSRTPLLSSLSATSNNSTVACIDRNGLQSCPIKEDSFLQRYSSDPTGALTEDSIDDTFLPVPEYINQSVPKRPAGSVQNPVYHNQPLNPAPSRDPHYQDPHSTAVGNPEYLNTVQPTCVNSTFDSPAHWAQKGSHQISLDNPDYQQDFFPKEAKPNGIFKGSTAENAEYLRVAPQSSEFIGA
T7 sequence (P00533 25-1210 T790M/C797S/L858R): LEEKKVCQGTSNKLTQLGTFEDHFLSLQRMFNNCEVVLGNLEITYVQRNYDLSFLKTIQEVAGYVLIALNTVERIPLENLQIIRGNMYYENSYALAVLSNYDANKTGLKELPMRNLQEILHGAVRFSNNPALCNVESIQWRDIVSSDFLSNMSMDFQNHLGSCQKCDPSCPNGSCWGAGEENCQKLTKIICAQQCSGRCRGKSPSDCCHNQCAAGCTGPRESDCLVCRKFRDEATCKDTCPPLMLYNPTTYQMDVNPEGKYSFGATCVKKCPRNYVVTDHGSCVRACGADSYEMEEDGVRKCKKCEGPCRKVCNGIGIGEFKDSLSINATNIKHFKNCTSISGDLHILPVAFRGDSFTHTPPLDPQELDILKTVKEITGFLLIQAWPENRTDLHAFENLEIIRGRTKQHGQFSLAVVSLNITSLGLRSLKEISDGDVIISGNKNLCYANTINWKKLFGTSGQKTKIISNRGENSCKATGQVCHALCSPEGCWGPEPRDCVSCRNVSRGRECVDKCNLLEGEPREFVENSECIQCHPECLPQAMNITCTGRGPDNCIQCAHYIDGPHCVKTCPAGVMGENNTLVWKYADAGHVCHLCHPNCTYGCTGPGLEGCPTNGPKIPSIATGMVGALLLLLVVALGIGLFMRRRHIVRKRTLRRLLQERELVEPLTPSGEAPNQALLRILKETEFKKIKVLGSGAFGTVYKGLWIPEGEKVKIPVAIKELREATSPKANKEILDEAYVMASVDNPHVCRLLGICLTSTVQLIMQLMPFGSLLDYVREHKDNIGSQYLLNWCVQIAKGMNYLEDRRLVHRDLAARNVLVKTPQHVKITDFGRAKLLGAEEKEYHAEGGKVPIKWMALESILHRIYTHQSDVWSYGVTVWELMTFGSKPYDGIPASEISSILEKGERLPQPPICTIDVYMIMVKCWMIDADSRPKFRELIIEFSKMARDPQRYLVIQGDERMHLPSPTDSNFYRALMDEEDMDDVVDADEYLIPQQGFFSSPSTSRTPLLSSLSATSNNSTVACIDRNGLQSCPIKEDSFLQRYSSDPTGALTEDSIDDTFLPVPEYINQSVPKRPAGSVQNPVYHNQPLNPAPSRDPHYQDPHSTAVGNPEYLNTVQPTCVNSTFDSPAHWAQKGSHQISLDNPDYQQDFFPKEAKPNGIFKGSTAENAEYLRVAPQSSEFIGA
T4 sequence (P00533 25-1210): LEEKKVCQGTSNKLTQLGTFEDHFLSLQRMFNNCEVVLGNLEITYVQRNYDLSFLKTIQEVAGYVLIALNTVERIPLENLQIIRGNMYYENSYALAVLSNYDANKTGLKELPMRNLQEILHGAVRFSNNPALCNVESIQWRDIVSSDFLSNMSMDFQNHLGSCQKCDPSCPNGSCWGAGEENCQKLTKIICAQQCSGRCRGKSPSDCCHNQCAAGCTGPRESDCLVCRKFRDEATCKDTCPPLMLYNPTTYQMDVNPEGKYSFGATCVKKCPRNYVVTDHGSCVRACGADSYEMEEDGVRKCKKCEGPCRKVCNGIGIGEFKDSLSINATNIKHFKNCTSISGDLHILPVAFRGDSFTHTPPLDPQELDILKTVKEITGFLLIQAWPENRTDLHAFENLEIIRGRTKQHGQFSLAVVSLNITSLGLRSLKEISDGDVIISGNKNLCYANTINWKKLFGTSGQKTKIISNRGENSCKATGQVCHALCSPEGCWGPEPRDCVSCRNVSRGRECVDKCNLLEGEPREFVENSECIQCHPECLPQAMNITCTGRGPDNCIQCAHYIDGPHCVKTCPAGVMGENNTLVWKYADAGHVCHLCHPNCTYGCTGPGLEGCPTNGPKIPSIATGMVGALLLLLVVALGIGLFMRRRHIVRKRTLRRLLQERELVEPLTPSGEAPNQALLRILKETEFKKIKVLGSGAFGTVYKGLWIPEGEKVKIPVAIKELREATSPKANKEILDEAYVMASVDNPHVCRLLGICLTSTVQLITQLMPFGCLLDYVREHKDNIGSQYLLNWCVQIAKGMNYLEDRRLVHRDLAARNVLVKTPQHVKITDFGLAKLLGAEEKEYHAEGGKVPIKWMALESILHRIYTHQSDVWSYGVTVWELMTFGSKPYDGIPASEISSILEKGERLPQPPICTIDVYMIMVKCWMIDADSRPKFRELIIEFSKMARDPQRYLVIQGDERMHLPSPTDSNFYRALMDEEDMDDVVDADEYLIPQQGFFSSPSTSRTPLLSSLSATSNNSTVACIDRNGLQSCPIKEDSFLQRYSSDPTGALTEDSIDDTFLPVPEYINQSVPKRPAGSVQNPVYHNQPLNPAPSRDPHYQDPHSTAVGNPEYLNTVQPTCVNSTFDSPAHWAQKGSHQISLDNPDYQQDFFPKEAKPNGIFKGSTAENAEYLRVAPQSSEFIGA

Row | Structure (SMILES) | IC50 (EGFR L858R/T790M) | IC50 (EGFR Exon19Del/T790M) | IC50 (EGFR (C797S L858R)) | IC50 (EGFR wild type) | GI50 [1, 3] | GI50 [1, 4] | GI50 [1, 5] | GI50 [1, 6] | GI50 [1, 7] | GI50 [1, 8] | GI50 [1, 9] | IC50 (EGFR (d746-750 C797S)) | IC50 [2] | IC50 (EGFR[T790M/C797S/L858R]) | GI50 (PC-9) | IC50 (EGFR Exon19Del) | GI50 (A-431; A-431 cells) | IC50 (EGFR L858R) | GI50 (A-431; [17]) | other results
1 | CCC1CCCOc2c(cnn2C)-c2cc(cn(C)c2=O)C(=O)Nc2nc3ccc(N4CCN(C)CC4)cc3n2C1 (single isomer, unassigned) [Example A16B, 11-Ethyl-5,26-dimethyl-16-(4-methylpiperazin-1-yl)-7-oxa-4,5,13,20,22,26-hexaazapentacyclo[22.3.1.0^{2,6}.0^{13,21}.0^{14,19}]octacosa-1(28),2(6),3,14,16,18,20,24-octaene-23,27-dione] | 22 nM | 12 nM | 16 nM | 288 nM | 5.2 nM | 24 nM | 21 nM | 19 nM | 17 nM | 53 nM | 29 nM | 3.2 nM | 10 nM | 14 nM | 73 nM | 5.5 nM | 664 nM | 28 nM | – | –
2 | Cn1ncc2c1OCCN1CC3CCC(C3)(C1)n1c(nc3ccccc31)NC(=O)c1cc-2c(=O)n(C)c1 (single isomer, unassigned) [Example A61A, 15,21-Dimethyl-23-oxa-2,9,11,15,20,21,26-heptaazaheptacyclo[24.4.1.1^{1,28}.1^{13,17}.0^{2,10}.0^{3,8}.0^{18,22}]tritriaconta-3,5,7,9,13,17(33),18(22),19-octaene-12,16-dione] | > 5000 nM | > 5000 nM | > 5000 nM | > 5000 nM | – | – | – | – | – | – | – | 1660 nM | > 5000 nM | > 5000 nM | – | 2180 nM | – | > 5000 nM | 5900 nM | GI50 [1, 10]: 521 nM; GI50 [1, 11]: 688 nM; GI50 [1, 12]: 1370 nM; GI50 [1, 13]: 1740 nM; GI50 [1, 14]: 1910 nM; GI50 [1, 15]: 2660 nM; GI50 [1, 16]: 913 nM; GI50 (PC-9; Homo sapiens, PC-9, 72 h): 1910 nM
3 | Cn1ncc2c1OCCN1CC3CCC(C3)(C1)n1c(nc3ccc(N4CCOCC4)cc31)NC(=O)c1cc-2c(=O)n(C)c1 (single isomer, unassigned) [Example A62B, 15,21-Dimethyl-5-(morpholin-4-yl)-23-oxa-2,9,11,15,20,21,26-heptaazaheptacyclo[24.4.1.1^{1,28}.1^{13,17}.0^{2,10}.0^{3,8}.0^{18,22}]tritriaconta-3,5,7,9,13,17(33),18(22),19-octaene-12,16-dione] | 6.3 nM | 2.8 nM | 19 nM | 809 nM | – | – | – | – | – | – | – | 1.4 nM | 2.9 nM | 4.3 nM | – | 3.5 nM | – | 45 nM | 1070 nM | GI50 [1, 10]: 0.64 nM; GI50 [1, 11]: 2.5 nM; GI50 [1, 12]: 3.9 nM; GI50 [1, 13]: 5.2 nM; GI50 [1, 14]: 5.3 nM; GI50 [1, 15]: 8.4 nM; GI50 [1, 16]: 2.6 nM; GI50 (PC-9; Homo sapiens, PC-9, 72 h): 10 nM
4 | CN1CCN(c2ccc3nc4n(c3c2)C23CCC(CN(CCOc5c(cnn5C)-c5cc(cn(C)c5=O)C(=O)N4)C2)C3)CC1 (single isomer, unassigned) [Example A63B] | 0.92 nM | 0.94 nM | 1.1 nM | 8 nM | 0.67 nM | 1.4 nM | 1.1 nM | 3.1 nM | 1.3 nM | 8.6 nM | 1.9 nM | 0.51 nM | 1.1 nM | 0.96 nM | 5 nM | 0.86 nM | 620 nM | 1.6 nM | – | –
5 | CN(C)C1CCN(c2ccc3nc4n(c3c2)C23CCC(CN(CCOc5c(cnn5C)-c5cc(cn(C)c5=O)C(=O)N4)C2)C3)CC1 (single isomer, unassigned) [Example A64A] | > 5000 nM | > 5000 nM | > 5000 nM | > 5000 nM | 215 nM | 513 nM | 599 nM | 443 nM | 381 nM | 2100 nM | 755 nM | 1920 nM | 2100 nM | > 5000 nM | 546 nM | 2160 nM | 6130 nM | > 5000 nM | – | –
6 | CN(C)C1CCN(c2ccc3nc4n(c3c2)C23CCC(CN(CCOc5c(cnn5C)-c5cc(cn(C)c5=O)C(=O)N4)C2)C3)CC1 (single isomer, unassigned) [Example A64B] | 2 nM | 1.8 nM | 2 nM | 3.6 nM | 0.71 nM | 0.92 nM | 0.91 nM | 1.7 nM | 0.79 nM | 4.9 nM | 1.3 nM | 0.95 nM | 2 nM | 1.9 nM | 3.3 nM | 1 nM | 973 nM | 2 nM | – | –
7 | CN(C)C1CN(c2ccc3nc4n(c3c2)C23CCC(CN(CCOc5c(cnn5C)-c5cc(cn(C)c5=O)C(=O)N4)C2)C3)C1 (single isomer, unassigned) [Example A65B] | 2.4 nM | 1.7 nM | 7.4 nM | 148 nM | 0.71 nM | 2.2 nM | 2.7 nM | 3.5 nM | 2.8 nM | 11 nM | 2.4 nM | 0.97 nM | 1.7 nM | 1.8 nM | 5.6 nM | 0.94 nM | 538 nM | 16 nM | – | –
8 | CN(C)[C@H]1CCN(c2ccc3nc4n(c3c2)C23CCC(CN(CCOc5c(cnn5C)-c5cc(cn(C)c5=O)C(=O)N4)C2)C3)C1 (single isomer, unassigned) [Example A66B] | 2.6 nM | 2.8 nM | 8.1 nM | 62 nM | 0.67 nM | 2.1 nM | 2.4 nM | 3.6 nM | 2.2 nM | 11 nM | 1.9 nM | 1.7 nM | 2.9 nM | 3.2 nM | 6.1 nM | 1.9 nM | – | 7.9 nM | 815 nM | –
